In US20010053350A1, “Cosmetic composition comprising N-ethyloxycarbonyl-4-amino-phenol and arbutin or its derivatives and/or ellagic acid or its derivatives” (L'OREAL, priority 1999, published 2001):
Values after ≈ are worked out from the molar mass of the structure shown.

What was measured:
fungal tyrosinase = assay: Inhibition of the activity of fungal tyrosinase in vitro (absorbance at 475 nm, L-tyrosine/L-dopa); assay type: biochemical; settings: for molar concentration at which an inhibition figure of 25% was observed: fungal tyrosinase, phosphate buffer, solvent ethanol (C1), water (C2)
Protocol: This test consisted in measuring the absorbance (optical density OD) at 475 nm, as a function of time, for each of the following active depigmenting principles:
N-ethyloxycarbonyl-4-para-aminophenol arbutin in solution (at different concentrations) in an appropriate solvent in the presence of a phosphate buffer, 1 ml of L-tyrosine at 2.0×10^−3 M in a phosphate buffer, 0.1 ml of L-dopa at 1.0×10^−4 M in a phosphate buffer and 50 μl of 1 g/l fungal tyrosinase solution in a phosphate buffer, compared with a control consisting of the solvent used, at the same concentration in the phosphate buffer. Percentage inhibition was subsequently determined by the following equation: [formula]
Subsequently, N-ethyloxycarbonyl-4-para-aminophenol and arbutin were mixed in concentrations C1 and C2 and N-ethyloxycarbonyl-4-para-aminophenol and ellagic acid were mixed in respective concentrations C1 and C3.

[1] = Upper solubility limit in the test solvent (DMSO); assay type: physicochemical; settings: organic solvent or mixture

Row | Molecule | molar concentration at which an inhibition figure of 25% was observed (fungal tyrosinase) [µM] | solubility [1] [µM] | inhibitory effect on tyrosinase activity (fungal tyrosinase; at concentration C3=1.35×10^−4 M (solubility limit in DMSO))
1 | CCOC(=O)Nc1ccc(O)cc1 [N-ethyloxycarbonyl-4-para-aminophenol] | 125 |  | 
2 | CC(C)CCC[C@@H](C)[C@H]1CC[C@H]2[C@@H]3CC=C4C[C@@H](OC(=O)Nc5ccc(O)cc5)CC[C@]4(C)[C@H]3CC[C@]12C [N-cholesteryloxycarbonyl-4-para-aminophenol] | 66.7 |  | 
3 | arbutin | 333 |  | 
4 | O=c1oc2c(O)c(O)cc3c(=O)oc4c(O)c(O)cc1c4c23 [ellagic acid] |  | 135 (≈ 40.8 µg/mL) | no inhibitory effect
5 | Oc1ccc(O)cc1 [hydroquinone] | 80 |  | 
